We go through 17 molecules from patent US20080269298A1, “Benzimidazol-1-YL-thiophene compounds for the treatment of cancer” (priority 2002, published 2008).

The subject of test [1] is prostate (PC3) tumor cell line. Put plainly: Methylene Blue Growth Inhibition Assay, PC3. The format is cell-based. The following applies: Homo sapiens, 72 h; Cell Line PC3, 3 days; read-out: MeB IC50. Here is the method:
(§1) Normal Human foreskin fibroblasts (HFF) and human colon (HCT116, RKO), lung (H460), prostate (PC3), and breast tumor (MCF7) cell lines were cultured in high glucose DMEM (Life Technologies) containing 10% fetal bovine serum (FBS) at 37° C. in a humidified 10% CO2, 90% air incubator. Cells were harvested using trypsin/EDTA, counted using a haemocytometer, and plated in 100 μl of the appropriate media, at the following densities, in a 96-well tissue culture plate (Falcon 3075): HFF 5,000 cells/well, HCT116 3,000 cells/well, RKO 2,500 cells/well, H460 2,000 cells/well, PC3 8,000 cells/well, MCF7 4,000 cells/well. The next day, compounds were diluted in DMEM containing 100 μg/ml gentamicin, at twice the final required concentration, from 10 mM stock solutions in DMSO. 100μ/well of these dilutions were added to the 100 μl of media currently on the cell plates. Medium containing 0.6% DMSO was added to control wells. Compounds diluted in DMEM were added to all cell lines. The final concentration of DMSO in all wells was 0.3%. Cells were incubated at 37° C., 10% CO2 for 3 days. Medium was removed by aspiration. Cell biomass was estimated by staining cells with […] per well methylene blue (Sigma M9140, 0.5% in 50:50 ethanol:water), and incubation at room temperature for at least 30 minutes. Stain was removed, and the plates rinsed under a gentle stream of water, and air-dried. To release stain from the cells 100 μl of solubilization solution was added (1% N-lauroyl sarcosine, Sodium salt, Sigma L5125, in PBS), and plates were shaken gently for about 30 minutes. Optical density at 620 nm was measured on a microplate reader. Percent inhibition of cell growth was calculated relative to vehicle treated control wells. Concentration of compound that inhibits 50% of cell growth (IC50) was interpolated using nonlinear regression (Levenberg-Marquardt) and the equation, y=Vmax*(1-(x/(K+x)))+Y2, where “K” was equal to the IC50. In Table 1, +=10−>30 uM; ++=1−10 uM: +++=<1 uM.

Test [2] has as its system breast tumor (MCF7) cell line. Put plainly: Methylene Blue Growth Inhibition Assay, MCF7. The class given is cell-based. The following applies: Homo sapiens, 72 h; Cell Line MCF7, 3 days; read-out: MeB IC50. On the procedure: as §1
The test system of test [3] is Normal Human foreskin fibroblasts (HFF). Put plainly: Methylene Blue Growth Inhibition Assay, HFF. Conditions: 72 h, Cell Line HFF, 3 days, read-out: MeB IC50. The class given is cell-based. On the procedure: as §1
For another test, the target named is T1, PLK1 kinase domain (Homo sapiens, UniProt P53350).
T1 construct: made in house; host or cells: baculovirus-infected T. ni insect cells
T1 sequence (P53350 21-346): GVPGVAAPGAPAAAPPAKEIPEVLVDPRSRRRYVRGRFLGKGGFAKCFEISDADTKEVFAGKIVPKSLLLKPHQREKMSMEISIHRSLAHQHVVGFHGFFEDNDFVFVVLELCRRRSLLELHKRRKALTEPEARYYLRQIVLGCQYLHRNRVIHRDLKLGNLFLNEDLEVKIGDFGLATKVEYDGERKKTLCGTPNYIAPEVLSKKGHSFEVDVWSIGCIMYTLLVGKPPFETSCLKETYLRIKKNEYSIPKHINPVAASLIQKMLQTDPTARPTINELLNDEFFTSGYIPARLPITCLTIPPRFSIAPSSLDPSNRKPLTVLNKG
Put plainly: Assay for Inhibition of PLK1 (SPA enzyme activity). The format is biochemical. Conditions: 2 μM ATP, read-out: Ave pIC50 PLK Enzyme Inhibition (converted). On the procedure: All procedures were performed at 4° C. Cells were lysed in so mM HEPES, 200 mM NaCl, so mM imidazole, 5% glycerol; pH 7.5. The homogenate was centrifuged at 14K rpm in a SLA-1500 rotor for 1 hr and the supernatant filtered through a 1.2 micron filter. The supernatant was loaded onto a Nickel chelating Sepharose (Amersham Pharmacia) column and washed with lysis buffer. Protein was eluted using 20%, 30% and 100% buffer B steps where buffer B is 50 mM HEPES, 200 mM NaCl, 300 mM imidazole, 5% glycerol; pH 7.5. Fractions containing PLK were determined by SDS-PAGE. Fractions containing PLK were diluted five-fold with so mM HEPES, 1 mM DTT, 5% glycerol; pH 7.5, then loaded on an SP Sepharose (Amersham Pharmacia) column. After washing the column with so mM HEPES, 1 mM DTT, 5% glycerol; pH 7.5, PLK was step eluted with so mM HEPES, 1 mM DTT, 500 mM NaCl; 5% glycerol; pH 7.5. PLK was concentrated using a 10 kDa molecular weight cutoff membrane and then loaded onto a Superdex 200 gel filtration (Amersham Pharmacia) column equilibrated in 25 mM HEPES, 1 mM DTT, 500 mM NaCl, 5% glycerol; pH 7.5. Fractions containing PLK were determined by SDS-PAGE. PLK was pooled, aliquoted and stored at −80° C. Samples were quality controlled using mass spectrometry, N-terminal sequencing and amino acid analysis.
B. Enzyme activity+/−inhibitors was determined as follows:
Compounds were added to the plate (1 μl in […]). […] Reaction Mix B is prepared as follows at 4° C.: • Reaction Mix B (Enzyme Mix) • 25 mM HEPES, pH 7.2 • 15 mM MgCl2 • 0.15 mg/ml BSA • 2 mM DTT • 2-10 nM PLK1 kinase domain
Reaction Mix A (20 μl) is added per well. Reaction Mix B (20 μl) is added per well. Incubate 1.5 hrs. at RT. The enzymatic reaction is stopped with 175 μl of SPA/EDTA bead mix (29 mM EDTA, 2.5 mg/ml Streptavidin-coated SPA in Standard Dulbecco's PBS (without Mg^2+ and Ca^2+), 60 μM ATP). Plates are sealed spun (after a 1 hr incubation at RT) at 1,000×g for 7 min or settled overnight, then plates counted in Packard TopCount for 30 seconds/well.

The test system of test [4] is lung (H460) tumor cell line. Put plainly: Methylene Blue Growth Inhibition Assay, H460. The format is cell-based. Conditions: Homo sapiens, NCI-H460, 72 h; Cell Line H460, 3 days; read-out: MeB IC50. Here is the method:
as §1

In test [5] the test system is colon (HCT116) tumor cell line. Put plainly: Methylene Blue Growth Inhibition Assay, HCT116. Conditions: Homo sapiens, HCT-116, 72 h; Cell Line HCT116, 3 days; read-out: MeB IC50. The class given is cell-based. On the procedure:
as §1

The test system of test [6] is colon (RKO) tumor cell line. Put plainly: Methylene Blue Growth Inhibition Assay, RKO. The following applies: Homo sapiens, 72 h, 3 days, read-out: MeB IC50. The format is cell-based. Here is the method:
as §1

pIC50: −log10 of the molar value.

For `Cc1ccccc1COc1cc(-n2cnc3cc(Cl)c(Cl)cc32)sc1C(=O)O` [Example 66, 5-(5,6-Dichloro-1H-benzimidazol-1-yl)-3-[(2-methylbenzyl)oxy]-thiophene-2-carboxylic acid], the negative-log IC50 (pIC50) in test [1], in test [2], in test [3], in test [4], in test [5] and in test [6] was less than 5.00 throughout. The IC50 at PLK1 kinase domain is less than 0.1 µM.
Regarding `COc1cc2ncn(-c3cc(OCc4ccccc4C(F)(F)F)c(C(N)=O)s3)c2cc1OCCN1CCN(C)CC1` [Example 136, 5-(5-(Methyloxy)-6-{[2-(4-methyl-1-piperazinyl)ethyl]oxy}-1H-benzimidazol-1-yl)-3-({[2-(trifluoromethyl)phenyl]methyl}oxy)-2-thiophenecarboxamide], the pIC50 in test [1] is 5.00 to 6.00; in test [2], greater than 6.00; in test [3], 5.00 to 6.00; in test [4] it was greater than 6.00; in test [5] it was greater than 6.00; in test [6], greater than 6.00. Also, the IC50 at PLK1 kinase domain was less than 0.1 µM.
Consider `COc1cc2ncn(-c3cc(OCc4cccc(N(C)C)c4)c(C(N)=O)s3)c2cc1OC` [Example 90, 5-(5,6-Dimethoxy-1H-benzimidazol-1-yl)-3-{[3-(dimethylamino)benzyl]oxy}thiophene-2-carboxamide], for which the negative-log IC50 (pIC50) was less than 5.00 in test [1]; 5.00 to 6.00 in test [2]; less than 5.00 in test [3]; 5.00 to 6.00 in test [4]; 5.00 to 6.00 in test [5]; 5.00 to 6.00 in test [6]. Further, the IC50 on PLK1 kinase domain is less than 0.1 µM.
For the molecule `COc1cc2ncn(-c3cc(OCc4ccccc4C(F)(F)F)c(C#N)s3)c2cc1OC` [Example 146, 5-(5,6-Dimethoxy-1H-benzimidazol-1-yl)-1-{[2-(trifluoromethyl)benzyl]oxy}thiophene-2-carbonitrile], the IC50 on PLK1 kinase domain was 0.1 to 10 µM.
Take `COc1cc2ncn(-c3cc(OCc4ccccc4C(F)(F)F)c(-c4nnn[nH]4)s3)c2cc1OC` [Example 147, 5,6-Dimethoxy-1-(5-(1H-tetraazol-5-yl)-4-{[2-(trifluoromethyl)-benzyl]oxy}thien-2-yl)-1H-benzimidazole]: the pIC50 in test [1], in test [2], in test [3], in test [4], in test [5] and in test [6] was less than 5.00 each time.
On to `COc1cccc(COc2cc(-n3cnc4ccccc43)sc2C(N)=O)c1` [Example 14, 5-(1H-Benzimidazol-1-yl)-3-[(3-methoxybenzyl)oxy]-2-thiophenecarboxamide], for which the IC50 at PLK1 kinase domain was less than 0.1 µM.
The same measure, in the same setting: for `Cc1ccccc1COc1cc(-n2cnc3ccccc32)sc1C(N)=O` [Example 4, 5-(1H-Benzimidazol-1-yl)-3-[(2-methylbenzyl)oxy]-2-thiophenecarboxamide] the value was less than 0.1 µM; for `Cc1cccc(COc2cc(-n3cnc4ccccc43)sc2C(N)=O)c1` [Example 13, 5-(1H-Benzimidazol-1-yl)-3-[(3-methylbenzyl)oxy]-2-thiophenecarboxamide], less than 0.1 µM.
`COc1cc2ncn(-c3cc(OCCc4ccccc4)c(C(N)=O)s3)c2cc1OC` [Example 114, 5-(5,6-Dimethoxy-1H-benzimidazol-1-yl)-3-(2-phenylethoxy)-thiophene-2-carboxamide]: the pIC50 in test [1], in test [2], in test [3], in test [4], in test [5] and in test [6] was less than 5.00 each time.
With `NC(=O)c1sc(-n2cnc3ccccc32)cc1OCc1cccc(Cl)c1` [Example 15, 5-(1H-Benzimidazol-1-yl)-3-[(3-chlorobenzyl)oxy]-2-thiophenecarboxamide], the IC50 at PLK1 kinase domain was less than 0.1 µM.
On the same count and under the same terms, to `Cc1ccccc1COc1cc(-n2cnc3cc(O)ccc32)sc1C(=O)O` [Example 141, 5-(5-Hydroxy-1H-benzimidazol-1-yl)-3-[(2-methylbenzyl)oxy]-thiophene-2-carboxylic acid] belongs less than 0.1 µM.
As to `COc1cc2ncn(-c3cc(OCC4CCCCC4)c(C(N)=O)s3)c2cc1OC` [Example 111, 3-(Cyclohexylmethoxy)-5-(5,6-dimethoxy-1H-benzimidazol-1-yl)thiophene-2-carboxamide], the pIC50 in test [1] was 5.00 to 6.00; in test [2], 5.00 to 6.00; in test [3], less than 5.00; in test [4], 5.00 to 6.00; in test [5] it was 5.00 to 6.00; in test [6] it was 5.00 to 6.00.
With `O=C(NO)c1sc(-n2cnc3ccccc32)cc1OCc1ccccc1` [Example 144, 5-(1H-Benzimidazol-1-yl)-3-(benzyloxy)-N-hydroxythiophene-2-carboxamide], the IC50 on PLK1 kinase domain was 0.1 to 10 µM.
In the case of `NC(=O)c1sc(-n2cnc3cc(Cl)ccc32)cc1OCc1ccccc1` [Example 84, 3-(Benzyloxy)-5-(5-chloro-1H-benzimidazol-1-yl)thiophene-2-carboxamide], the IC50 at PLK1 kinase domain was less than 0.1 µM.
`NC(=O)c1sc(-n2cnc3ccccc32)cc1OCc1ccccc1C(F)(F)F` [Example 116, 5-(1H-Benzimidazol-1-yl)-3-{[2-(trifluoromethyl)benzyl]oxy}thiophene-2-carboxamide]: the pIC50 is less than 5.00 in test [1]; greater than 6.00 in test [2]; 5.00 to 6.00 in test [3]; greater than 6.00 in test [4]; 5.00 to 6.00 in test [5]; greater than 6.00 in test [6].
Turning to `COc1cc2ncn(-c3cc(OCc4ccccc4C(F)(F)F)c(C(=O)O)s3)c2cc1OC` [Example 75], the negative-log IC50 (pIC50) in test [1] is less than 5.00; in test [2], less than 5.00; in test [3], less than 5.00; in test [4], less than 5.00; in test [5], 5.00 to 6.00; in test [6] it was less than 5.00.
For the molecule `COc1cc2ncn(-c3cc(OCCCc4ccccc4)c(C(N)=O)s3)c2cc1OC` [Example 115, 5-(5,6-Dimethoxy-1H-benzimidazol-1-yl)-3-(3-phenylpropoxy)thiophene-2-carboxamide], the pIC50 is less than 5.00 in test [1]; 5.00 to 6.00 in test [2]; less than 5.00 in test [3]; 5.00 to 6.00 in test [4]; 5.00 to 6.00 in test [5]; 5.00 to 6.00 in test [6].
